We go through four molecules from patent publication EP0432183B1, “NEW CITYDIN-5'-DIPHOSPHATE ALKANOLS AND GLYCEROLS, A PROCESS FOR PREPARING THEM AND THEIR USE” (Clarion Pharmaceuticals, Inc., priority 1988, dated 1990).

This assay concerns Ehrlich Ascites-Tumorzellen. The assay can be described thus: Concentration-dependent growth inhibition of Ehrlich ascites tumour cells (antiproliferative effect). In kind it is cell-based. The settings on record: Wachstumshemmung, read-out: Hemmung (%); for inhibition at 3 µM: Konzentration 3 μmolar; for inhibition at 10 µM: Konzentration 10 μmolar; for inhibition at 30 µM: Konzentration 30 μmolar; for inhibition at 100 µM: Konzentration 100 μmolar. The text has this: Zur Bestimmung der cytostatischen Wirkung wurde die antiproliferative Wirkung bei Ehrlich-Ascites Tumorzellen untersucht. Dabei zeigte sich, daß die erfindungsgemäßen Verbindungen ausgezeichnete cytostatische Wirkung aufweisen. Sie können daher allein oder in Mischung mit anderen Wirksubstanzen in Form üblicher galenischer Zubereitungen als Cytostatika oder Virustatika eingesetzt werden.
Konzentrationsabhängige Wachstumshemmung von Ehrlich Ascites-Tumorzellen.

Each structure is given as a SMILES string.

For `CCCCCCCCCCCCCCCCOP(=O)(O)OP(=O)(O)OC[C@H]1O[C@@H](n2ccc(N)nc2=O)[C@H](O)[C@@H]1O` [Bsp. 1, Cytidin-5'-diphosphat-hexadekanol], the inhibition at 3 µM came out at 12%, the inhibition at 10 µM came to 19%, the inhibition at 30 µM amounted to 46% and the inhibition at 100 µM worked out at 31%.
In the same order, the values of `CCCCCCCCCCCCCCCCOCC(COP(=O)(O)OP(=O)(O)OC[C@H]1O[C@@H](n2ccc(N)nc2=O)[C@H](O)[C@@H]1O)OCC(F)(F)F` (stereo partly shown) [Bsp. 2, Cytidin-5'-diphosphat-1-0-hexadecyl-2-0-(2,2,2-trifluorethyl)glycerol] are 9.5%, 30%, 86% and 100%.
In the same order, the values of `CCCCCCCCCCCCCCCCOCC(CCl)OP(=O)(O)OP(=O)(O)OC[C@H]1O[C@@H](n2ccc(N)nc2=O)[C@H](O)[C@@H]1O` (stereo partly shown) [Bsp. 3, Cytidin-5'-diphosphat-3-chlor-3-desoxy-1-0-hexadecylglycerol] are 12%, 17%, 29% and 69%.
In the same order, the values of `CCCCCCCCCCCCCCCCOCC(Cl)COP(=O)(O)OP(=O)(O)OC[C@H]1O[C@@H](n2ccc(N)nc2=O)[C@H](O)[C@@H]1O` (stereo partly shown) [Bsp. 4, Cytidin-5'-diphosphat-2-chlor-2-desoxy-1-0-hexadecylglycerol] are 18%, 38%, 67% and 94%.
